Target: human SPR (Homo sapiens (Human), UniProt P35270)
Assay: Evaluation Example 2: Measurement of human SPR inhibitory activity (seven concentrations, sepiapterin absorbance at 420 nm)
Type: biochemical
Conditions: Evaluation Example 2, seven concentrations 0.14 nM to 100 nM, 240 minutes at room temperature, read-out: IC50
Summary of the method: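 His-tagged full-length human SPR (1-261) was expressed in E. coli and the tag removed. Enzyme at 150 ng/mL in 100 mM Tris-HCl pH 7.5/0.01% BSA was mixed with compound (0.14–100 nM, seven points), 120 μM sepiapterin and 160 μM NADPH, both as added-solution concentrations. After 240 min at room temperature, remaining sepiapterin was read at 420 nm to give percent inhibition.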

human SPR, sequence (P35270 whole entry): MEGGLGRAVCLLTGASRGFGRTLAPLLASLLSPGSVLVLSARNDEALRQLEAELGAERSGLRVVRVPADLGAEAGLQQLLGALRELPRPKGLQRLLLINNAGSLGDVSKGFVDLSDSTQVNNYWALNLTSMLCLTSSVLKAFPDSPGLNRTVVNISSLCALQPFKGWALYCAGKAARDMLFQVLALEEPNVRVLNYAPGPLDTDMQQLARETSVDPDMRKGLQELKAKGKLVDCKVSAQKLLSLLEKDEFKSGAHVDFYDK

C/C(=C\c1cnn2c(O)c(C(=O)NC3CC3)c(=O)n(CC(C)C)c12)C(=O)N1CCN(C2CC(F)(F)C2)CC1 [Synthesis Example 255, (E)-N-Cyclopropyl-3-(3-(4-(3,3-difluorocyclobutyl)piperazin-1-yl)-2-methyl-3-oxoprop-1-en-1-yl)-7-hydroxy-4-isobutyl-5-oxo-4,5-dihydropyrazolo[1,5-a]pyrimidine-6-carboxamide]
IC50: 1.02 nM

C/C(=C\c1cnn2c(O)c(C(=O)NC3CC3)c(=O)n(CC(C)C)c12)C(=O)N1CCC(F)(F)C1 [Synthesis Example 256, (E)-N-Cyclopropyl-3-(3-(3,3-difluoropyrrolidin-1-yl)-2-methyl-3-oxoprop-1-en-1-yl)-7-hydroxy-4-isobutyl-5-oxo-4,5-dihydropyrazolo[1,5-a]pyrimidine-6-carboxamide]
IC50: 0.97 nM

C/C(=C\c1cnn2c(O)c(C(=O)NC3CC3)c(=O)n(CC(C)C)c12)C(=O)NC(C)C [Synthesis Example 257, (E)-N-Cyclopropyl-7-hydroxy-4-isobutyl-3-(3-(isopropylamino)-2-methyl-3-oxoprop-1-en-1-yl)-5-oxo-4,5-dihydropyrazolo[1,5-a]pyrimidine-6-carboxamide]
IC50: 1.01 nM

C/C(=C\c1cnn2c(O)c(C(=O)NC3CC3)c(=O)n(CC(C)C)c12)C(=O)N(C)CC#N [Synthesis Example 258, (E)-3-(3-((Cyanomethyl)(methyl)amino)-2-methyl-3-oxoprop-1-en-1-yl)-N-cyclopropyl-7-hydroxy-4-isobutyl-5-oxo-4,5-dihydropyrazolo[1,5-a]pyrimidine-6-carboxamide]
IC50: 0.74 nM

CC(C)Cn1c(=O)c(C(=O)NC2CC2)c(O)n2ncc(COc3cccnc3)c12 [Synthesis Example 259, N-Cyclopropyl-7-hydroxy-4-isobutyl-5-oxo-3-((pyridin-3-yloxy)methyl)-4,5-dihydropyrazolo[1,5-a]pyrimidine-6-carboxamide]
IC50: 0.18 nM

CC(C)Cn1c(=O)c(C(=O)NC2CC2)c(O)n2ncc(COc3ccccc3)c12 [Synthesis Example 260, N-Cyclopropyl-7-hydroxy-4-isobutyl-5-oxo-3-(phenoxymethyl)-4,5-dihydropyrazolo[1,5-a]pyrimidine-6-carboxamide]
IC50: 1.27 nM

CC(C)Cn1c(=O)c(C(=O)NC2CC2)c(O)n2ncc(C#N)c12 [Synthesis Example 261, 3-Cyano-N-cyclopropyl-7-hydroxy-4-isobutyl-5-oxo-4,5-dihydropyrazolo[1,5-a]pyrimidine-6-carboxamide]
IC50: 2.27 nM

CC(C)Cn1c(=O)c(C(=O)NC2CC2)c(O)n2ncc(CNC(=O)C3CCOCC3)c12 [Synthesis Example 262, N-Cyclopropyl-7-hydroxy-4-isobutyl-5-oxo-3-((tetrahydro-2H-pyran-4-carboxamido)methyl)-4,5-dihydropyrazolo[1,5-a]pyrimidine-6-carboxamide]
IC50: 1.01 nM

CC(C)Cn1c(=O)c(C(=O)NC2CC2)c(O)n2ncc(CNC(=O)C3CCC(F)(F)CC3)c12 [Synthesis Example 263, N-Cyclopropyl-3-((4,4-difluorocyclohexane-1-carboxamido)methyl)-7-hydroxy-4-isobutyl-5-oxo-4,5-dihydropyrazolo[1,5-a]pyrimidine-6-carboxamide]
IC50: 1.22 nM

CC(C)Cn1c(=O)c(C(=O)NC2CC2)c(O)n2ncc(CC(=O)N3CCOCC3)c12 [Synthesis Example 264, N-Cyclopropyl-7-hydroxy-4-isobutyl-3-(2-morpholino-2-oxoethyl)-5-oxo-4,5-dihydropyrazolo[1,5-a]pyrimidine-6-carboxamide]
IC50: 0.95 nM

CC(C)Cn1c(=O)c(C(=O)NC2CC2)c(O)n2ncc(/C=C/C(C)(C)O)c12 [Synthesis Example 265, (E)-N-Cyclopropyl-7-hydroxy-3-(3-hydroxy-3-methylbut-1-en-1-yl)-4-isobutyl-5-oxo-4,5-dihydropyrazolo[1,5-a]pyrimidine-6-carboxamide]
IC50: 0.68 nM

CC(C)Cn1c(=O)c(C(=O)NC2CC2)c(O)n2ncc(/C=C/C3=NCC(C)(C)O3)c12 [Synthesis Example 266, (E)-N-Cyclopropyl-3-(2-(5,5-dimethyl-4,5-dihydrooxazol-2-yl)vinyl)-7-hydroxy-4-isobutyl-5-oxo-4,5-dihydropyrazolo[1,5-a]pyrimidine-6-carboxamide]
IC50: 1.58 nM

CC(C)Cn1c(=O)c(C(=O)NC2CC2)c(O)n2ncc(/C=C/c3noc(=O)[nH]3)c12 [Synthesis Example 267, (E)-N-Cyclopropyl-7-hydroxy-4-isobutyl-5-oxo-3-(2-(5-oxo-4,5-dihydro-1,2,4-oxadiazol-3-yl)vinyl)-4,5-dihydropyrazolo[1,5-a]pyrimidine-6-carboxamide]
IC50: 14.3 nM

Cc1nnc(/C=C/c2cnn3c(O)c(C(=O)NC4CC4)c(=O)n(CC(C)C)c23)s1 [Synthesis Example 268, (E)-N-Cyclopropyl-7-hydroxy-4-isobutyl-3-(2-(5-methyl-1,3,4-thiadiazol-2-yl)vinyl)-5-oxo-4,5-dihydropyrazolo[1,5-a]pyrimidine-6-carboxamide]
IC50: 1.04 nM

Cc1nnc(/C=C/c2cnn3c(O)c(C(=O)NC4CC4)c(=O)n(CC(C)C)c23)o1 [Synthesis Example 269, (E)-N-Cyclopropyl-7-hydroxy-4-isobutyl-3-(2-(5-methyl-1,3,4-oxadiazol-2-yl)vinyl)-5-oxo-4,5-dihydropyrazolo[1,5-a]pyrimidine-6-carboxamide]
IC50: 1.17 nM

COC(C)(C)Cn1c(=O)c(C(=O)NC2CC2)c(O)n2nc(Br)cc12 [Synthesis Example 270, 2-Bromo-N-cyclopropyl-7-hydroxy-4-(2-methoxy-2-methylpropyl)-5-oxo-4,5-dihydropyrazolo[1,5-a]pyrimidine-6-carboxamide]
IC50: 1.16 nM

COC(C)(C)Cn1c(=O)c(C(=O)NC2CC2)c(O)n2nc(-c3cccnc3N)cc12 [Synthesis Example 271, 2-(2-Aminopyridin-3-yl)-N-cyclopropyl-7-hydroxy-4-(2-methoxy-2-methylpropyl)-5-oxo-4,5-dihydropyrazolo[1,5-a]pyrimidine-6-carboxamide]
IC50: 1.08 nM

CC(C)(C)Cn1c(=O)c(C(=O)NCC(F)(F)F)c(O)n2nc(Br)cc12 [Synthesis Example 272, 2-Bromo-7-hydroxy-4-neopentyl-5-oxo-N-(2,2,2-trifluoroethyl)-4,5-dihydropyrazolo[1,5-a]pyrimidine-6-carboxamide]
IC50: 3.78 nM

CC(C)Cn1c(=O)c(C(=O)NCC(F)(F)F)c(O)n2nc(Br)cc12 [Synthesis Example 273, 2-Bromo-7-hydroxy-4-isobutyl-5-oxo-N-(2,2,2-trifluoroethyl)-4,5-dihydropyrazolo[1,5-a]pyrimidine-6-carboxamide]
IC50: 11.6 nM

CC(C)(C)Cn1c(=O)c(C(=O)NC2CC2)c(O)n2nc(CN3CCCCC3)cc12 [Synthesis Example 274, N-Cyclopropyl-7-hydroxy-4-neopentyl-5-oxo-2-(piperidin-1-ylmethyl)-4,5-dihydropyrazolo[1,5-a]pyrimidine-6-carboxamide]
IC50: 9.46 nM

COC(C)(C)Cn1c(=O)c(C(=O)NC2CC2)c(O)n2nc(C(N)=O)cc12 [Synthesis Example 275, N6-Cyclopropyl-7-hydroxy-4-(2-methoxy-2-methylpropyl)-5-oxo-4,5-dihydropyrazolo[1,5-a]pyrimidine-2,6-dicarboxamide]
IC50: 0.68 nM

NC(=O)c1cc2n(CC3CCC(F)(F)CC3)c(=O)c(C(=O)NC3CC3)c(O)n2n1 [Synthesis Example 276, N6-Cyclopropyl-4-((4,4-difluorocyclohexyl)methyl)-7-hydroxy-5-oxo-4,5-dihydropyrazolo[1,5-a]pyrimidine-2,6-dicarboxamide]
IC50: 0.68 nM

CC(C)(Cn1c(=O)c(C(=O)NC2CC2)c(O)n2nc(C(N)=O)cc12)C(F)(F)F [Synthesis Example 277, N6-Cyclopropyl-7-hydroxy-5-oxo-4-(3,3,3-trifluoro-2,2-dimethylpropyl)-4,5-dihydropyrazolo[1,5-a]pyrimidine-2,6-dicarboxamide]
IC50: 0.82 nM

CC(C)(C)Cn1c(=O)c(C(=O)NC2CC2)c(O)n2nc(C(C)(C)O)cc12 [Synthesis Example 278, N-Cyclopropyl-7-hydroxy-2-(2-hydroxypropan-2-yl)-4-neopentyl-5-oxo-4,5-dihydropyrazolo[1,5-a]pyrimidine-6-carboxamide]
IC50: 1.87 nM

CC(C)(C)Cn1c(=O)c(C(=O)NC2CC2)c(O)n2nc(C#N)cc12 [Synthesis Example 279, 2-Cyano-N-cyclopropyl-7-hydroxy-4-neopentyl-5-oxo-4,5-dihydropyrazolo[1,5-a]pyrimidine-6-carboxamide]
IC50: 1.76 nM

COc1ncccc1-c1cc2n(CC(C)(C)C)c(=O)c(C(=O)NC3CC3)c(O)n2n1 [Synthesis Example 281, N-Cyclopropyl-7-hydroxy-2-(2-methoxypyridine-3-yl)-4-neopentyl-5-oxo-4,5-dihydropyrazolo[1,5-a]pyrimidine-6-carboxamide]
IC50: 3.08 nM

COc1ccncc1-c1cc2n(CC(C)(C)C)c(=O)c(C(=O)NC3CC3)c(O)n2n1 [Synthesis Example 282, N-Cyclopropyl-7-hydroxy-2-(4-methoxypyridine-3-yl)-4-neopentyl-5-oxo-4,5-dihydropyrazolo[1,5-a]pyrimidine-6-carboxamide]
IC50: 4.73 nM

CC(C)(C)Cn1c(=O)c(C(=O)NC2CC2)c(O)n2nc(-c3cccnc3F)cc12 [Synthesis Example 283, N-Cyclopropyl-2-(2-fluoropyridine-3-yl)-7-hydroxy-4-neopentyl-5-oxo-4,5-dihydropyrazolo[1,5-a]pyrimidine-6-carboxamide]
IC50: 2.35 nM

CC(C)(C)Cn1c(=O)c(C(=O)NC2CC2)c(O)n2nc(-c3cccnc3C(F)(F)F)cc12 [Synthesis Example 284, N-Cyclopropyl-7-hydroxy-4-neopentyl-5-oxo-2-(2-(trifluoromethyl)pyridin-3-yl)-4,5-dihydropyrazolo[1,5-a]pyrimidine-6-carboxamide]
IC50: 3.93 nM
